The results in this text go back to patent US10093656B2, “Fused-ring or tricyclic aryl pyrimidine compound used as kinase inhibitor” (NANJING SANHOME PHARMACEUTICAL CO., LTD, priority 2015, dated 2018).

The structures appear in SMILES notation.

The target of one experiment is T1, EGFR T790M/L858R (Homo sapiens, UniProt P00533, L858R/T790M).
T1 construct: purchased Life technology (Madison, Wis.)
Description: EGFR T790M/L858R enzyme HTRF inhibition assay. The class given is biochemical. The conditions noted are these: 20 μM ATP, read-out: EGFR L858R/T79M IC50. A digest of the protocol:
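HTRF assay with 0.04 nM enzyme, 1 μM biotin-TK1 peptide and 20 μM ATP, 60 min at 23° C. Product detected with Eu-anti-TK1 antibody/XL665 (60 min at 23° C); compound at 10 doses, 300 nM to 0.015 nM final. IC50 from four-parameter fit.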
(In TR-FRET formats the signal depends on donor and acceptor labels being close together.)

A further experiment addresses T2, EGFR wild type (Homo sapiens, UniProt P00533).
T2 construct: purchased Life technology (Madison, Wis.)
Briefly: Wild-type EGFR enzyme HTRF inhibition assay. Format: biochemical. The conditions noted are these: 25 μM ATP, read-out: EGFR WT IC50. Put shortly: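 HTRF with 0.05 nM wild-type EGFR, 1 μM biotin-TK1 peptide, 25 μM ATP, 60 min at 23° C; detected with Eu-anti-TK1 antibody 2 nM and XL665 62.5 nM, 60 min at 23° C. Ten 3-fold doses, 300 nM to 0.015 nM final; IC50 by four-parameter fit of % inhibition.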

T1 sequence (P00533 25-1210 T790M/L858R): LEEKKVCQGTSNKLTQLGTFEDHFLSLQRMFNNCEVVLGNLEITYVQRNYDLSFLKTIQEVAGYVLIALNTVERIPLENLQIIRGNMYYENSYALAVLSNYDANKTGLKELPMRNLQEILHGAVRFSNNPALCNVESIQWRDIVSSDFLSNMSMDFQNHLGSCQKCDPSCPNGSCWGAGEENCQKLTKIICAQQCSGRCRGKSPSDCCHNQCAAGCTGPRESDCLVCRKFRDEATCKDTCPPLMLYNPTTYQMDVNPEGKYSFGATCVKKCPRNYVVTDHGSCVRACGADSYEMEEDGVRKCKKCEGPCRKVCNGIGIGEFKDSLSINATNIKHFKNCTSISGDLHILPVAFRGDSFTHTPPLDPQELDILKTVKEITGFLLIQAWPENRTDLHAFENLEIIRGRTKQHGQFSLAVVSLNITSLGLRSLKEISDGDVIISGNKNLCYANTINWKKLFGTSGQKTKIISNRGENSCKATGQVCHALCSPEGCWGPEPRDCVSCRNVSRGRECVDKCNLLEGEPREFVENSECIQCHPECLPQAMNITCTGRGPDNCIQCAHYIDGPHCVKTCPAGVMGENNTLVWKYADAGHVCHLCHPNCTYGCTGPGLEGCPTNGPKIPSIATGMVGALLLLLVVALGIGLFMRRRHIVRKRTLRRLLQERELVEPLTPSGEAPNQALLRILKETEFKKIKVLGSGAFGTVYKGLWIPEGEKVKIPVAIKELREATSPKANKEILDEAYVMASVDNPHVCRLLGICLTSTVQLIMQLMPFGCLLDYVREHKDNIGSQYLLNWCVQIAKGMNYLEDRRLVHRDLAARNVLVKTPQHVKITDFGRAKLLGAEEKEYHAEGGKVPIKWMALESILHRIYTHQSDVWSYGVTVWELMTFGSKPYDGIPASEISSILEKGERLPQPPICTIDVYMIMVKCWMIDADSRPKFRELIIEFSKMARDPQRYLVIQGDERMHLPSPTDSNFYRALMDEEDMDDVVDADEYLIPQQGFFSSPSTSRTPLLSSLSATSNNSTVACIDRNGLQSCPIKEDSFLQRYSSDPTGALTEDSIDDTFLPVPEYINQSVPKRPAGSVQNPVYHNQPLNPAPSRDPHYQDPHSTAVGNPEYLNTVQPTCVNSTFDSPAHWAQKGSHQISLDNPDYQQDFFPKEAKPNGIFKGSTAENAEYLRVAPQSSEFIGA
T2 sequence (P00533 25-1210): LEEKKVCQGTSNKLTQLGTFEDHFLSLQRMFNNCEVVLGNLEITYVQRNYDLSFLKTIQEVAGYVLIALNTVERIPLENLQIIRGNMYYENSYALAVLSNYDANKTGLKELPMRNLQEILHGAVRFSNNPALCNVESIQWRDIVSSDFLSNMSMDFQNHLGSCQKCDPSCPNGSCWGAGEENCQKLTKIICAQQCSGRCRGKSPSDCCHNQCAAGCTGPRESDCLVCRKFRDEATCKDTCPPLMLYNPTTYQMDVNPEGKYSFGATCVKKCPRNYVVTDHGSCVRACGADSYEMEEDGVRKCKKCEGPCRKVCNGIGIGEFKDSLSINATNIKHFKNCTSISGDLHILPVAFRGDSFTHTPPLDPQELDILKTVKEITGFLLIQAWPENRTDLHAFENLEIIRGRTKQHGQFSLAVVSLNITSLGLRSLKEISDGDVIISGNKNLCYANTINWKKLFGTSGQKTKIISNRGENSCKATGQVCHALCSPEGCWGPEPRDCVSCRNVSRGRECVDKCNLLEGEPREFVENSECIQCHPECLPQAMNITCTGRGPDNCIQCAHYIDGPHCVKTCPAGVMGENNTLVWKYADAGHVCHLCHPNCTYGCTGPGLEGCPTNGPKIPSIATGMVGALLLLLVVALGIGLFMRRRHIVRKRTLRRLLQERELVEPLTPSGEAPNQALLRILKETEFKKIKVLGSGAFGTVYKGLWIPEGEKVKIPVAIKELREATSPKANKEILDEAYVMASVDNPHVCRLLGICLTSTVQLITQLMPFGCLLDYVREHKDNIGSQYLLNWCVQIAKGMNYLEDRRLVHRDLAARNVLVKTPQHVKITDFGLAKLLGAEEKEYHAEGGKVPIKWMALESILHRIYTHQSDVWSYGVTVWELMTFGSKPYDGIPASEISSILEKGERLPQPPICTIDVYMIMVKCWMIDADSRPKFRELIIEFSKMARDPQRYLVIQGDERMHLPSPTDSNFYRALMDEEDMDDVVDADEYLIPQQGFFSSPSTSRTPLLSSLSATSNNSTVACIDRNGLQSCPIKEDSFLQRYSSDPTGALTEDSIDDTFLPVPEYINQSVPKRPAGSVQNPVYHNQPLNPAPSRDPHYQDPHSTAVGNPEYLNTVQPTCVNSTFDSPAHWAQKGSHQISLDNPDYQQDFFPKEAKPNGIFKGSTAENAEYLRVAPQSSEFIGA

Turning to `C=CC(=O)Nc1cc(Nc2ncc(F)c(-c3c4n(c5cc(F)ccc35)CCOC4)n2)c(OC)cc1N(C)CCN(C)C` [Embodiment 33, N-(2-((2-(Dimethylamino)ethyl)(methyl)amino)-5-((5-fluoro-4-(7-fluoro-3,4-dihydro-1H-[1,4]oxazino[4,3-a]indol-10-yl)pyrimidin-2-yl)amino)-4-methoxyphenyl)acrylamide], the IC50 is 0.5 nM on EGFR T790M/L858R and 2.6 nM at EGFR wild type.
